Reference: patent publication US11969428B2, “Methods and pharmaceutical compositions for treating lymphoid malignancy” (priority 2011, dated 2024)

Tests used:
p110α = p110α (Homo sapiens, UniProt P42336); assay: ex-vivo PI3 kinase assay using recombinant PI3K; assay type: biochemical; conditions: ATP at Km
Description: (§1) CAL-130 is a derivative of IC87114 (Gilead Sciences, Foster City, CA), the synthesis of which has been previously described (Sadhu et al., 2003 and Sadhu et al., U.S. Pat. Nos. 6,518,277 and 6,667,300, which are incorporated by reference as if recited in full herein). […] values for CAL-130 inhibition of PI3K isoforms were determined in ex-vivo PI3 kinase assays using recombinant PI3K. A 10-point kinase inhibitory profile was determined with ATP at a concentration consistent with the Km for each enzyme (Puri et al., 2004).

p110β = p110β (Homo sapiens, UniProt P42338); assay: ex-vivo PI3 kinase assay using recombinant PI3K; assay type: biochemical; conditions: ATP at Km
Sequence of p110β (P42338 whole entry, species assumed): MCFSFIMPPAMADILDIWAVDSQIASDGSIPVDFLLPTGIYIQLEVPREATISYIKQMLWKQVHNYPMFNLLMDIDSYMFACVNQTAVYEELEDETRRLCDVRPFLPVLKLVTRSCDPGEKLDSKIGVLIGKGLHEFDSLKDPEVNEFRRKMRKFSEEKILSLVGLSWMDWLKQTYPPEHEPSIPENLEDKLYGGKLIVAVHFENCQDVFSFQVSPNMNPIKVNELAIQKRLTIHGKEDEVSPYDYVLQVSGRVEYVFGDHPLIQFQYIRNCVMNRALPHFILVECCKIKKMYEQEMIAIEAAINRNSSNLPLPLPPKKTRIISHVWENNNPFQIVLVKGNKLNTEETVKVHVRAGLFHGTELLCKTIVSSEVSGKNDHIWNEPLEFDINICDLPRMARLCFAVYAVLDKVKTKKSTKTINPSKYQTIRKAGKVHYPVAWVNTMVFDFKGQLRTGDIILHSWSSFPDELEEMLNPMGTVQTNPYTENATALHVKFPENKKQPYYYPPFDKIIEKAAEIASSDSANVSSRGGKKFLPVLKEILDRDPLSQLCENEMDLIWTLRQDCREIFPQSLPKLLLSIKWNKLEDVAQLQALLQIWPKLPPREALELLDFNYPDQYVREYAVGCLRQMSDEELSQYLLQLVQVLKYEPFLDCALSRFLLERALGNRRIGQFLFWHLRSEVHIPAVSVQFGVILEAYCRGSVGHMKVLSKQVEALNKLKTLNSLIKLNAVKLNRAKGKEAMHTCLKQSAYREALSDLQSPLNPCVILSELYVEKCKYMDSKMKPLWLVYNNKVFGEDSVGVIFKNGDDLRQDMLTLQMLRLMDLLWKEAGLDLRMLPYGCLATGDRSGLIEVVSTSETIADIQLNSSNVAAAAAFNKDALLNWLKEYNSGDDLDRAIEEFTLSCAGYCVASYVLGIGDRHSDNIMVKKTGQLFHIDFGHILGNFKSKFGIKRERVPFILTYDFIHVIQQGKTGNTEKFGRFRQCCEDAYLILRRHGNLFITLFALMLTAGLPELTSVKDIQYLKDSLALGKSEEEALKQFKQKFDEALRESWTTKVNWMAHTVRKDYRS
Sequence of p110β (P27986 whole entry partner, species assumed): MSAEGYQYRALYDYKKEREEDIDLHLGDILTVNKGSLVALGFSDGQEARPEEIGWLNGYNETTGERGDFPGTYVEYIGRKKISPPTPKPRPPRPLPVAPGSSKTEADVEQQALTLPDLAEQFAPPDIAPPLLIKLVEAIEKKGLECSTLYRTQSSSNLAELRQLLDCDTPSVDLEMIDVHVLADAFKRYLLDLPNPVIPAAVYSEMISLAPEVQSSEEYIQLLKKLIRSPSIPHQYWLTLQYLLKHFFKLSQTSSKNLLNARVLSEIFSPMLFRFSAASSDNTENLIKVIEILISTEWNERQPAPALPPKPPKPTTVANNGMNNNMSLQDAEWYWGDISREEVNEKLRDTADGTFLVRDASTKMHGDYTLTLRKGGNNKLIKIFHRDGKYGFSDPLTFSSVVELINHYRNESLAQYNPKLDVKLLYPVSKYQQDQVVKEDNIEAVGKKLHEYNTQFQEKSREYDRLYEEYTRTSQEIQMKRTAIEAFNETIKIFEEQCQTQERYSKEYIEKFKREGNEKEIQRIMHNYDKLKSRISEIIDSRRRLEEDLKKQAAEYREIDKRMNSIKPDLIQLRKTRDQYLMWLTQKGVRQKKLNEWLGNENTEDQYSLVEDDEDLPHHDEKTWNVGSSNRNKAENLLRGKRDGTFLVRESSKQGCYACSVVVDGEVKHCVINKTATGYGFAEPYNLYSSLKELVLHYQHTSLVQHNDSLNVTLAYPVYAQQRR
Description: as §1

p110γ = p110γ (Homo sapiens, UniProt P48736); assay: ex-vivo PI3 kinase assay using recombinant PI3K; assay type: biochemical; conditions: ATP at Km
Sequence of p110γ (P48736 whole entry, species assumed): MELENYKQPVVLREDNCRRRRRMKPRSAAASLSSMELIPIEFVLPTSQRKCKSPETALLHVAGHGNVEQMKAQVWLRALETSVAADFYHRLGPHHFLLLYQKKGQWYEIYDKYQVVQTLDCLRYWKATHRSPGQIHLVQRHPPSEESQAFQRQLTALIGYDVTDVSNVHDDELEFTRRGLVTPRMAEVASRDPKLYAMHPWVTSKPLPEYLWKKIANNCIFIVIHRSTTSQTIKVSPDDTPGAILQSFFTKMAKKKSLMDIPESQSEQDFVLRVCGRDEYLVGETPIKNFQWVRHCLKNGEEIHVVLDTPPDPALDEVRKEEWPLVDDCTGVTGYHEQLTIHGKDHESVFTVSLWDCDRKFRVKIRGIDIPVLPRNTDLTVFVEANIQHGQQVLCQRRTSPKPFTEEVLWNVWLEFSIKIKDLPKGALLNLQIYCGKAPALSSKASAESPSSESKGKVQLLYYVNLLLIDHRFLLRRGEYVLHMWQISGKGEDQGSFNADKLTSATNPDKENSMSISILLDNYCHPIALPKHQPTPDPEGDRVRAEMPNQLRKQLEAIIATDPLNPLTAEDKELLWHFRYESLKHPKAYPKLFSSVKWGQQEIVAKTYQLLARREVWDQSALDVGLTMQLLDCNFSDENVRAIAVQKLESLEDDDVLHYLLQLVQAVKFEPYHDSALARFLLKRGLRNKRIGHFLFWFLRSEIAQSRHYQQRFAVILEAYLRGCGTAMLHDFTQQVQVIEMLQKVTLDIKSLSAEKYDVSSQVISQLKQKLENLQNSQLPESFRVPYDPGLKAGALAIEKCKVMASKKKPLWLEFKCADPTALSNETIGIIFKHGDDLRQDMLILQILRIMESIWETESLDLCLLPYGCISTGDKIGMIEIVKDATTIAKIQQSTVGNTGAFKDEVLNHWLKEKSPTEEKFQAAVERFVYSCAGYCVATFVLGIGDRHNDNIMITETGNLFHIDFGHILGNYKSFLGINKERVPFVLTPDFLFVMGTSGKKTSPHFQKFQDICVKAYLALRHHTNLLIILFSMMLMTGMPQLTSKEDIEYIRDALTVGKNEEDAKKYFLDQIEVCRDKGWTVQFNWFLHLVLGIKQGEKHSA
Description: as §1

p110δ = p110δ (Homo sapiens, UniProt O00329); assay: ex-vivo PI3 kinase assay using recombinant PI3K; assay type: biochemical; conditions: ATP at Km
Sequence of p110δ (O00329 whole entry, species assumed): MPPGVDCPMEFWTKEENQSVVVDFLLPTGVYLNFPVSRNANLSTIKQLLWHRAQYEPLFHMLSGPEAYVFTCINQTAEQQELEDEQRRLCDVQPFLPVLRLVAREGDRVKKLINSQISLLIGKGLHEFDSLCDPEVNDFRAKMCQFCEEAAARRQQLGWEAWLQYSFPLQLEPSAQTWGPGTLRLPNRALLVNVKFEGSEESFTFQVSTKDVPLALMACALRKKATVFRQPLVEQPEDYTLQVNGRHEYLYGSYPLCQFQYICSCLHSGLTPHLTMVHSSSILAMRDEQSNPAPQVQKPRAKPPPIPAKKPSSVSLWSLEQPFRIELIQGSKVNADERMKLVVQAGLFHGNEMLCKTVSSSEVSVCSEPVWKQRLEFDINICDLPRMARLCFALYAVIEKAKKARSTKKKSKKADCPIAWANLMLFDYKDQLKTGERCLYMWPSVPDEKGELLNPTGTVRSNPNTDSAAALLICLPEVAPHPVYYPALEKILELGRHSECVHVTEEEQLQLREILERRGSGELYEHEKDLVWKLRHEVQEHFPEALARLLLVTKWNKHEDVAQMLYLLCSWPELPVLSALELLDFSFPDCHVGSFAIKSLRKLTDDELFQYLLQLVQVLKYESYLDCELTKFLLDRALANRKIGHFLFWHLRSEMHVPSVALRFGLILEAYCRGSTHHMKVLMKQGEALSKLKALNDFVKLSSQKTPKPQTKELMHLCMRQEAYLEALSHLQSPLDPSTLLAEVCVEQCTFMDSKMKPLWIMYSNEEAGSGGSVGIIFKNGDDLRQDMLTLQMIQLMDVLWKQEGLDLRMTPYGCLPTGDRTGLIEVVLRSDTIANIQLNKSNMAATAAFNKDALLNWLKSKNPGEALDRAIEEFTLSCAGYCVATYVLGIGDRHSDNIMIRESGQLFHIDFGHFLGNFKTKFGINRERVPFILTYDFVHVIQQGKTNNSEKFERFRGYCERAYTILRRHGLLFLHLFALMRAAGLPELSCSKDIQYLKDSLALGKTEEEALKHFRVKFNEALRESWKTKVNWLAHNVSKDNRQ
Sequence of p110δ (P27986 whole entry partner, species assumed): as the sequence (P27986 whole entry partner, species assumed) above
Description: as §1

Akt/PKB phosphorylation = assay: TCR-induced Akt/PKB phosphorylation in thymocytes (Western blot); assay type: cell-based, mouse; conditions: thymocytes from 6 week old wild type animals
Description: (§2) Cell lysates (from cell lines or thymocytes) were prepared on ice in M-PER Mammalian Protein Extraction reagent (Pierce) containing a cocktail of protease and phosphatase inhibitors (Swat et al., 2006). Equal amounts of total protein from lysates were subjected to SDS-PAGE, transferred to PVDF membrane (Immobilon-P, Millipore), and membranes probed by overnight incubation with appropriate primary antibodies. Bound antibodies were visualized with HRP-conjugated secondary antibodies and ECL chemistry (SuperPico West, Pierce).
To assess the requirement for p110δ in TCR-induced phosphorylation of Akt/PBK, single-cell suspensions of thymocytes (1×10^8/mL) from PI3Kγ-deficient animals were incubated with the p110δ-specific inhibitor IC87114 (10 μM) or with vehicle control (DMSO) for 30 minutes before TCR cross-linking, as described for the Ca^2+ flux assay. Aliquots (100 μL) were collected at 0, 10, 30, and 60 minutes after TCR cross-linking, briefly centrifuged to pellet, and subsequently lysed with ice-cold M-Per (Pierce, Rockford, IL) (according to the manufacturer's recommendations) that contained a cocktail of phosphatase and protease inhibitors (Puri et al., 2005). Lysates were clarified by centrifugation (12,000 g for 15 minutes at 4° C.), and total and phosphorylated Akt/PBK were determined by Western blot analysis.

Plasma levels of CAL-130 = assay type: in vivo, mouse; conditions: 10 mg kg−1 orally, at the end of 8 hours
Description: For CAL-130 level determinations, animals received a single oral dose (10 mg kg^−1 or 20 mg kg^−1) of inhibitor. Plasma was collected at 0, 2, 4, 8, and 12 hours and subjected to high-performance liquid chromatography-MS/MS (sensitivity 1 ng/mL). The concentration of CAL-130 in plasma was determined using a standard curve (analyte peak area versus concentration) generated with calibration standard pools. Values represent the mean (±SD) for four animals per group.

CCRF-CEM cells = assay: Immunoblots of signaling downstream of PI3K; assay type: cell-based, human
Description: as §2
The PI3K/Akt signaling pathway can play a major role in cell cycle progression and growth of tumors by regulating the activation state of the downstream targets such as glycogen synthase kinase-3β (GSK3β) and mTOR (Schmelzle and Hall, 2000; Cohen and Frame, 2001). PI3K/Akt mediated phosphorylation suppresses the function of the former and promotes the activity of the latter. Tumor cell survival, on the other hand, is largely mediated by the ability of this pathway to inactivate proapoptotic effectors such as the BH3-only pro-apoptotic protein BAD and to repress the expression of BIM, both of which participate in the mitochondria-dependent cell death pathway (Strasser et al., 2000; Duronio, 2008). Therefore, the ability of CAL-130 treatment to interfere with such events was examined. […] Downstream targets of this protein kinase were also affected as evidenced by the reduction in phosphorylation of GSK3β and mTOR. […] The latter would also explain in part the synergy between CAL-130 and dexamethasone, as BIM expression is required for glucocorticoid-induced apoptosis (Erlacher et al., 2005; Wang et al., 2003).

CCRF-CEM xenografts = assay: Subcutaneous CCRF-CEM (CEM-luc) xenograft, bioluminescence; assay type: in vivo, mouse; conditions: 10 mg kg−1 every 8 hours for 4 days
Description: For subcutaneous xenograft experiments, luminescent CCRF-CEM (CEM-luc) cells were generated by lentiviral infection with FUW-luc and selection with neomycin. Luciferase expression was verified with the Dual-Luciferase Reporter Assay kit (Promega Corp., Madison, WI). […] After 1 week, mice were treated by oral gavage with vehicle (0.5% methyl cellulose, 0.1% Tween-80), or CAL-130 (10 mg kg^−1) (Gilead Sciences, Foster City, CA) every 8 hours daily for 4 days and then tumors imaged as follows: mice anesthetized by isoflurane inhalation were injected intraperitoneally with D-luciferin (50 mg kg^−1, Xenogen, Calipers Life Sciences, Hopkinton, MA). Photonic emission was imaged with the In Vivo Imaging System (IVIS, Xenogen). Tumor bioluminescence was quantified by integrating the photonic flux (photons per second) through a region encircling each tumor using the LIVING IMAGES software package (Xenogen).
In the former, luciferase expressing CCRF-CEM cells were injected into the flanks of immunodeficient mice and allowed to grow for 1 week before administering vehicle control or inhibitor (10 mg kg^−1 every 8 hours) for a total of 4 days. In the latter, treatment commenced 3 days post-injection of tumor cells for a total of 7 days. […]

[1] = tested on: primary human T-ALL tumor cells; assay: Primary T-ALL cell viability on MS5-DL1 stroma; assay type: cell-based; conditions: primary T-ALL devoid of PTEN; 72 hours
Description: Cell proliferation of CCRF-CEM cells or shRNA transfected CCRF-CEM cells, in the presence or absence of appropriate drug, was followed by cell counting of samples in triplicate using a hemocytometer and trypan blue. For apoptosis determinations of untransfected or shRNA transfected CCRF-CEMs, cells were stained with APC-conjugated Annexin-V (BD Biosciences) in Annexin Binding Buffer (Miltyeni Biotec) and analyzed by flow cytometry. For primary T-ALL samples, cell viability was assessed using the BD Cell Viability kit (BD Biosciences) coupled with the use of fluorescent counting beads as previously described (Armstrong et al., 2009). For this, cells were plated with MS5-DL1 stroma cells, and after 72 hours following drug treatment cells were harvested and stained with an APC-conjugated anti-human CD45 followed by a staining with the above kit according to the manufacturer's instructions.

Sequence of p110α (P42336 whole entry, species assumed, canonical isoform): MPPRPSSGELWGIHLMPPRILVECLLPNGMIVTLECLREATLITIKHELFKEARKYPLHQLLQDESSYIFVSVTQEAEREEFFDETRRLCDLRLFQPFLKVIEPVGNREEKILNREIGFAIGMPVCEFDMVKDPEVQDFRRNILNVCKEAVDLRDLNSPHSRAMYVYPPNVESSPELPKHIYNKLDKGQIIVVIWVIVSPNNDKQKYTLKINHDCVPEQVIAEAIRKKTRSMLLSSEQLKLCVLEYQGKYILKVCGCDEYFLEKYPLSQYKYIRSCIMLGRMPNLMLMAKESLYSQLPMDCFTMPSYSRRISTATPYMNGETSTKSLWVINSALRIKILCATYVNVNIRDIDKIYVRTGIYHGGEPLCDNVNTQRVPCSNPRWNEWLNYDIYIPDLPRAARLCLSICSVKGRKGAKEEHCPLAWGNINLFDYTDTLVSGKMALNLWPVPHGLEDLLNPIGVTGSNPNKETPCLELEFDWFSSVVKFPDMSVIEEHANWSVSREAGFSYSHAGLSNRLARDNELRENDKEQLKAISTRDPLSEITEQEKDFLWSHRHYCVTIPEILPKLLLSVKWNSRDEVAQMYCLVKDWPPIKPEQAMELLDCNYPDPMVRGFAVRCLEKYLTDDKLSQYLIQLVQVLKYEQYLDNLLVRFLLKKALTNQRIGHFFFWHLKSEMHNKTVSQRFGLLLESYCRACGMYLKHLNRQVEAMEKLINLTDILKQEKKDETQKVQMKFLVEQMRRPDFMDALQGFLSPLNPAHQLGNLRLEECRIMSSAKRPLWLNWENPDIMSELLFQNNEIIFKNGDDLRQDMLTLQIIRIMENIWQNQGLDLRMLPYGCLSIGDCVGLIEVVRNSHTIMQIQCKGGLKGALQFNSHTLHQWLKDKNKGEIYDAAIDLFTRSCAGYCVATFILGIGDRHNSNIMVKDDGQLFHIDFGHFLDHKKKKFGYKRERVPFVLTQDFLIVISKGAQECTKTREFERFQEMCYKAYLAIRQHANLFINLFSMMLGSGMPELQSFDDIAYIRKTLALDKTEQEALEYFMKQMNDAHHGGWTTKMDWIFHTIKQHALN
Sequence of p110α (P27986 whole entry partner, species assumed, canonical isoform): as the sequence (P27986 whole entry partner, species assumed) above

Compound `Cc1ccccc1-n1c(C(C)Nc2nc(N)nc3nc[nH]c23)nc2cccc(C)c2c1=O` (stereo not shown) [CAL-130] has an IC50 (p110α) of 115 nM, an IC50 (p110β) of 56 nM and an IC50 (p110γ) of 6.1 nM. The IC50 (p110δ) was 1.3 nM, the “TCR induced Akt phosphorylation (Ser473)” value (Akt/PKB phosphorylation) was “prevented” and the plasma concentration (Plasma levels of CAL-130) was 330 ± 180 nM. For the same compound, the “expression of BIM (including L and S isoforms)” value (CCRF-CEM cells) was “enhanced expression”, the “phosphorylation of BAD” value (CCRF-CEM cells) was “reduction” and the “phosphorylation of GSK3β” value (CCRF-CEM cells) was “reduction”. For the same compound, the “phosphorylation of mTOR” value (CCRF-CEM cells) was “reduction”, the “Akt (Ser473) phosphorylation” value (CCRF-CEM cells; 2.5 μM, 6 hours) was “complete abrogation” and the “difference in luminescence, treated versus vehicle control” value (CCRF-CEM xenografts) was 5 fold. For the same compound, the tumor cell viability [1] was “reduction in tumor cell viability”.
